# Results published in the supplement of paper PMC10307832.
# Columns and labels:
# Test in all cases: relative viability (nuclei count vs DMSO), 5 days (fraction); higher = more cells survive
# IMD-0354 + Lapatinib = compound: O=C(Nc1cc(C(F)(F)F)cc(C(F)(F)F)c1)c1cc(Cl)ccc1O [IMD-0354] + CS(=O)(=O)CCNCc1ccc(-c2ccc3ncnc(Nc4ccc(OCc5cccc(F)c5)c(Cl)c4)c3c2)o1 [Lapatinib] (partner 2 µM)
# Summary of the method: (§1)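 Values are medians from duplicate plates. Each reflects relative viability, defined as the nuclei count of treated wells over that of vehicle wells. Lung cancer cell lines in 1536-well plates were pin-tool dosed one day after seeding with one drug alone or with a fixed anchor-drug dose plus five library-drug doses (not always all listed) in √10 steps, then fixed, stained and imaged at 4× after 5 days.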
# CX-5461 + Phenformin = compound: Cc1cnc(CNC(=O)c2c(=O)c3ccc(N4CCCN(C)CC4)nc3n3c2sc2ccccc23)cn1 [CX-5461] + N=C(N)NC(=N)NCCc1ccccc1 [Phenformin] (partner 250 µM)
# Summary of the method: as §1
# CX-5461 + Vorinostat = compound: Cc1cnc(CNC(=O)c2c(=O)c3ccc(N4CCCN(C)CC4)nc3n3c2sc2ccccc23)cn1 [CX-5461] + O=C(CCCCCCC(=O)Nc1ccccc1)NO [Vorinostat] (partner 1 µM)
# Summary of the method: as §1
# IMD-0354 + Vorinostat = compound: O=C(Nc1cc(C(F)(F)F)cc(C(F)(F)F)c1)c1cc(Cl)ccc1O [IMD-0354] + O=C(CCCCCCC(=O)Nc1ccccc1)NO [Vorinostat] (partner 1 µM)
# Summary of the method: as §1
Cell Line,relative viability (IMD-0354 + Lapatinib; first compound 0.04 µM),relative viability (IMD-0354 + Lapatinib; first compound 0.1265 µM),relative viability (IMD-0354 + Lapatinib; first compound 0.4 µM),relative viability (IMD-0354 + Lapatinib; first compound 1.265 µM),relative viability (IMD-0354 + Lapatinib; first compound 4 µM),relative viability (CX-5461 + Phenformin; first compound 0.01 µM),relative viability (CX-5461 + Phenformin; first compound 0.03162 µM),relative viability (CX-5461 + Phenformin; first compound 0.1 µM),relative viability (CX-5461 + Phenformin; first compound 0.3162 µM),relative viability (CX-5461 + Phenformin; first compound 1 µM),relative viability (CX-5461 + Vorinostat; first compound 0.01 µM),relative viability (CX-5461 + Vorinostat; first compound 0.03162 µM),relative viability (CX-5461 + Vorinostat; first compound 0.1 µM),relative viability (CX-5461 + Vorinostat; first compound 0.3162 µM),relative viability (CX-5461 + Vorinostat; first compound 1 µM),relative viability (IMD-0354 + Vorinostat; first compound 0.04 µM),relative viability (IMD-0354 + Vorinostat; first compound 0.1265 µM),relative viability (IMD-0354 + Vorinostat; first compound 0.4 µM),relative viability (IMD-0354 + Vorinostat; first compound 1.265 µM),relative viability (IMD-0354 + Vorinostat; first compound 4 µM)
SW 1573,1.07,1.25,0.362,0.628,0.14,0.421,0.369,0.151,0.303,0.121,0.726,0.668,0.116,0.15,0.214,1.08,0.676,0.429,0.158,0.0883
NCI-H1650,0.864,0.757,0.481,0.211,0.184,0.409,0.275,0.191,0.33,0.148,0.619,0.466,0.33,0.61,0.261,0.541,0.724,0.377,0.199,0.193
NCI-H2009,0.82,0.832,0.647,0.134,0.155,0.501,0.441,0.24,0.472,0.282,0.755,0.716,0.652,0.661,0.332,0.705,0.784,0.544,0.253,0.113
LOU-NH91,0.85,0.804,0.337,0.226,0.222,0.801,0.7,0.697,,0.594,0.985,0.957,0.87,0.49,0.697,1.03,0.709,0.164,0.173,0.201
NCI-H2405,1.38,1.24,0.69,0.243,0.202,0.411,0.363,0.415,0.326,0.342,1.04,0.872,0.994,0.939,0.669,1.24,0.984,0.706,0.306,0.335
LCLC-97TM1,,0.792,0.419,0.27,0.144,0.397,0.479,0.415,,0.384,0.917,0.965,0.769,0.102,0.661,0.879,0.782,0.273,0.0926,0.123
NCI-H596,0.989,1.22,0.823,1.07,0.474,0.754,0.869,0.879,0.723,0.637,0.608,0.686,0.664,0.706,0.306,0.631,0.694,0.413,0.671,0.461
NCI-H727,0.801,0.84,0.55,0.439,0.325,0.602,0.601,0.974,0.464,0.617,1.4,1.2,1.28,1.03,1.05,1.04,1.19,0.856,0.808,0.787
H3255,0.189,0.246,0.276,0.17,0.207,0.373,0.367,0.374,0.301,0.338,0.767,0.771,0.9,,0.734,0.743,0.796,0.587,0.43,0.288
LK-2,1.14,0.9,0.545,0.844,0.288,0.611,0.443,0.386,,0.111,0.422,0.315,0.367,0.2,0.307,0.291,0.284,,0.158,0.216
NCI-H1437,0.86,0.69,0.317,0.122,0.194,0.353,0.315,,0.288,0.273,0.942,0.871,0.791,0.858,0.749,0.842,0.81,0.432,0.251,0.263
LU99A,0.708,0.952,0.604,0.247,0.165,0.911,0.855,0.821,0.528,0.21,0.529,0.544,0.377,0.323,0.215,0.417,0.498,0.375,0.2,0.162
HCC-827,0.195,0.187,0.186,0.168,0.145,0.406,0.426,0.444,0.406,0.359,0.854,0.887,0.85,0.567,0.923,0.86,0.841,0.706,0.264,0.29
NCI-H1395,1.11,1.28,0.821,0.292,0.364,0.473,0.426,0.437,0.341,0.396,0.672,0.635,0.535,0.379,0.473,0.873,0.691,0.616,0.375,0.408
HCC-366,0.91,1.41,0.118,0.0814,0.0302,0.657,0.657,0.627,0.604,0.253,0.441,0.408,0.166,0.242,0.0455,0.314,0.439,0.206,0.165,0.0652
BEN,0.601,0.878,0.373,0.266,0.229,0.28,0.263,0.253,0.28,0.268,0.596,0.588,0.514,0.536,0.608,0.586,0.667,0.48,0.441,0.391
NCI-H23,0.996,1.14,0.475,0.183,0.237,0.769,0.875,0.834,0.803,0.406,0.755,0.577,0.492,0.458,0.3,0.664,0.745,0.289,0.172,0.192
NCI-H1793,0.651,0.613,0.347,0.238,0.323,0.388,0.392,0.433,,0.289,0.894,0.927,0.786,0.367,0.645,0.698,0.949,0.461,0.262,0.287
201T,1.07,1.08,0.827,1.04,0.333,0.468,0.431,0.464,0.441,0.388,1.07,1.04,1.02,0.559,0.976,0.958,1.07,0.813,0.537,0.31
NCI-H358,0.541,0.441,0.413,0.273,0.192,0.349,0.347,0.316,0.236,0.148,0.745,0.78,0.701,0.27,0.402,0.768,0.753,0.323,0.135,0.175
NCI-H460,1.08,0.679,0.178,0.0562,0.0153,0.545,0.483,,0.483,0.0194,0.721,0.909,0.216,0.48,0.0282,0.552,1.09,0.445,0.0405,0.0422
NCI-H661,0.466,0.458,0.477,0.538,0.273,0.285,0.286,0.316,0.259,0.23,0.822,0.8,0.734,0.472,0.583,0.835,0.714,0.455,0.248,0.2
HCC-15,0.837,0.824,0.383,0.241,0.127,0.514,0.53,0.372,0.467,0.163,0.926,0.882,0.818,0.834,0.768,0.931,0.799,0.516,0.327,0.2
ABC-1,1.31,1.15,,1.17,0.612,0.23,0.212,0.213,,0.212,1.2,,1.02,0.442,0.394,1.1,1.22,0.575,,0.443
EPLC-272H,1.32,0.944,0.618,0.716,0.205,0.278,0.299,0.264,,0.361,0.47,0.362,0.362,0.48,0.458,0.285,0.463,0.754,0.172,0.338
